Results from ChEMBL document CHEMBL3526083, “Prediction of relative in vivo metabolite exposure from in vitro data using two model drugs: dextromethorphan and omeprazole” (Drug Metab Dispos, 2012).

Assays:
Format in all cases: ADME
[1] = test system: Liver microsome; assay: Drug metabolism in human liver microsomes assessed as dextrophan-O-glucuronide formation measured as intrinsic clearance
[2] = target: T1, UDP-glucuronosyltransferase 1A1 (Homo sapiens, UniProt P22309); assay: Drug metabolism assessed as recombinat UGT1A1 (unknown origin) -mediated dextrophan-O-glucuronide formation
T1 sequence (P22309 whole entry): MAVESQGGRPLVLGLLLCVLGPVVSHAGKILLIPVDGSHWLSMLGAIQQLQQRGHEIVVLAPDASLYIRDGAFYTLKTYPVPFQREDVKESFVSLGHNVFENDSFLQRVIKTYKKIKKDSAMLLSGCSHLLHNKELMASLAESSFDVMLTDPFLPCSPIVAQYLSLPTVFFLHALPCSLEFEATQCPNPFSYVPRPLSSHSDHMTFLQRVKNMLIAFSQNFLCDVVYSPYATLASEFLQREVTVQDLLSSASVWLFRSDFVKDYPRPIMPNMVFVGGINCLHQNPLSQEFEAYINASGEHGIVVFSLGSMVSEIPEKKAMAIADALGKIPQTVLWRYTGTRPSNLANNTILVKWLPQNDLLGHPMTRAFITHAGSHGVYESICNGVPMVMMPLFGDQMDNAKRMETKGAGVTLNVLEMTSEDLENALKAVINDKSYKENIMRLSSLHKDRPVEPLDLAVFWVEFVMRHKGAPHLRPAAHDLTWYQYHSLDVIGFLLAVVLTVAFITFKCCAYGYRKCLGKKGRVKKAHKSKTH

[3] = test system: Liver microsome; assay: Drug metabolism in human liver microsomes assessed as 3-hydroxymorphinan formation measured as intrinsic clearance
[4] = target: T2, UDP-glucuronosyltransferase 2B15 (Homo sapiens, UniProt P54855); assay: Drug metabolism assessed as recombinat UGT2B15 (unknown origin) -mediated dextrophan-O-glucuronide formation
T2 sequence (P54855 whole entry): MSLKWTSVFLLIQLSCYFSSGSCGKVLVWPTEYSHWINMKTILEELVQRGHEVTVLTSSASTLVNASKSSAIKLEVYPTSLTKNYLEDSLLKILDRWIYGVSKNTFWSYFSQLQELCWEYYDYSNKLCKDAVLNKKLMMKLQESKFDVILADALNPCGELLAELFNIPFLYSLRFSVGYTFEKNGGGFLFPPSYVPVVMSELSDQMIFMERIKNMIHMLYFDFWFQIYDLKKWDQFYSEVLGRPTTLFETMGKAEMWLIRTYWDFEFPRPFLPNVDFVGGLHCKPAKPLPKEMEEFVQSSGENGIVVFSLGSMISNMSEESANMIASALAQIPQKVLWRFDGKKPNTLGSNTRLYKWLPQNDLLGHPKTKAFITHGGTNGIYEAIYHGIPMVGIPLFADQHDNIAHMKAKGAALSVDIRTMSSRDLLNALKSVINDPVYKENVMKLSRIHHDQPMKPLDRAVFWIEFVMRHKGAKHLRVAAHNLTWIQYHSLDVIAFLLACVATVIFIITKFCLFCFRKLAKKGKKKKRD

[5] = target: T3, UDP-glucuronosyltransferase 1A8 (Homo sapiens, UniProt Q9HAW9); assay: Drug metabolism assessed as recombinat UGT1A8 (unknown origin) -mediated dextrophan-O-glucuronide formation
T3 sequence (Q9HAW9 whole entry): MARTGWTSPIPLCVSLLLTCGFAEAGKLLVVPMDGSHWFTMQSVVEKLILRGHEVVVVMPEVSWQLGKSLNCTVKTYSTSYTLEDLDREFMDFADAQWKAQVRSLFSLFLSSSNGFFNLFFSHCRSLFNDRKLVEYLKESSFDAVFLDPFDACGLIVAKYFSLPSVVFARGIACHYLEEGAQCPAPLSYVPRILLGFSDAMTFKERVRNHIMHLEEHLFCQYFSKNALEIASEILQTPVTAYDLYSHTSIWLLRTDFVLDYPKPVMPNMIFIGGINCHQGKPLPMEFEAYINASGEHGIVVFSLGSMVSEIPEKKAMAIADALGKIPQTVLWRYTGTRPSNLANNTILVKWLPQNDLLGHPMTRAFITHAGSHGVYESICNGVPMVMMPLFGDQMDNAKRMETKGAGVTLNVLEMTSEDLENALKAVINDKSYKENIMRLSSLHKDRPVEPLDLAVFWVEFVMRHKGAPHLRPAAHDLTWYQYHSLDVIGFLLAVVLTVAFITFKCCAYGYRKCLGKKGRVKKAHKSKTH

[6] = target: T4, UDP-glucuronosyltransferase 2B4 (Homo sapiens, UniProt P06133); assay: Drug metabolism assessed as recombinat UGT2B4 (unknown origin) -mediated dextrophan-O-glucuronide formation
T4 sequence (P06133 whole entry): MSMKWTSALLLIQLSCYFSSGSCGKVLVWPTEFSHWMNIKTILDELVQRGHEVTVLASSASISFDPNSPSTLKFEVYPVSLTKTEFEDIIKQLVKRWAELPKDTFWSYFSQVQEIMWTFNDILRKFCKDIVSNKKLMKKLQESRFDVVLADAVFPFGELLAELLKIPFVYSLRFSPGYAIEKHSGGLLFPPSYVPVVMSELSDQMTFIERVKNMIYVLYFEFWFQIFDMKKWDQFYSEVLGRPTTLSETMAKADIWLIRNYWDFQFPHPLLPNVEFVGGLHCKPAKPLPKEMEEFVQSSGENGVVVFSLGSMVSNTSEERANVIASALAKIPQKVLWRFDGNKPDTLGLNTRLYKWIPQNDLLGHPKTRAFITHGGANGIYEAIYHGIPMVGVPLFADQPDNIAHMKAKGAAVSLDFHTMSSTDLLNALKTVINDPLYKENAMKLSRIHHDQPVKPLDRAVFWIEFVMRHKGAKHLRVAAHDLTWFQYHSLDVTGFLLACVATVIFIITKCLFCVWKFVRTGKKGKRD

[7] = test system: Liver microsome; assay: Drug metabolism in human liver microsomes assessed as dextrophan-O-glucuronide formation measured as plasma fraction unbound in presence of 2% BSA
[8] = test system: Liver microsome; assay: Drug metabolism in human liver microsomes assessed as dextrophan-O-glucuronide formation measured as microsomal fraction unbound in presence of 2% BSA
[9] = test system: Liver microsome; assay: Drug metabolism in human liver microsomes assessed as dextrophan-O-glucuronide formation measured as intrinsic unbound clearance in presence of 2% BSA
[10] = test system: Liver microsome; assay: Drug metabolism in human liver microsomes assessed as dextrophan-O-glucuronide formation measured per mg of microsomal protein

## CN1CC[C@@]23CCCC[C@@H]2[C@@H]1Cc1ccc(O)cc13 [DEXTRORPHAN]
[1]
  CLH: 2.9 µL/min/mg
[2]
  Drug metabolism: metabolite_not_detected
[3]
  CLH: 0.88 µL/min/mg
[4]
  Drug metabolism: metabolite_detected
[5]
  Drug metabolism: metabolite_not_detected
[6]
  Drug metabolism: metabolite_detected
[7]
  Fu: 0.55
[8]
  Fu: 0.88
[9]
  CL free: 12 µL/min/mg
[10]
  Vmax: 2 nmol/min
